In data set [1] the test system is rat ventricular myocytes. In words: Necrotic cell death by Hoechst 33342 / propidium iodide double staining immediately after ischemia. Format: cell-based. As to conditions: Ventricular myocyte, NPPB 50 µM at start of ischemic treatment, after 8 hours of ischemia, group without reagent 44.4%, read-out: cells stained by PI. The method, then: Primary cultures of rat ventricular myocytes were prepared and cultured in the manner described in Example 1. The procedures of Example 1 were also used to expose the primary cultures of rat ventricular myocytes to ischemic treatment (removal of glucose and oxygen). […] Immediately after ischemia, cells were double stained to examine a rate of necrotic cell death, using Hoechst 33342 and propidium iodide (PI) according to a method known in the art. Hoechst 33342 stains the nucleus of all cells, and propidium iodide (PI) stains only dead cells with necrosis-induced membrane injury.

In data set [2] the test system is neonatal rat ventricular myocytes. Kind of data set: Cell viability (MTT) after ischemic treatment and post-ischemic reperfusion in primary cultures. It is filed as cell-based. The settings on record: for effect of dbcAMP + PMA on cell viability under co-application of CFTR channel blocker: DP plus NPPB 50 µM, glibenclamide 500 µM, gemfibrozil 2 mM or 9AC 2 mM during ischemic treatment, MTT after 96 hours reperfusion. The procedure:
Primary cultures of ventricular myocytes were prepared from the hearts of neonatal rats by enzyme treatment. M199+10% FBS was used as culture medium. To reduce the number of contaminating non-myocardial cells, the medium was supplemented with 100 µM BrdU during incubation. The primary cell cultures of rat myocardial cells were subjected to ischemic treatment (removal of glucose and oxygen) and post-ischemic reperfusion according to the following procedures. The medium was replaced with a glucose-free solution, which contained 108 mM NaCl, 0.5 mM MgCl2, 5.4 mM KCl, 1mM CaCl2, and 5 mM HEPES (pH adjusted to 7.4 with NaHCO3), and were incubated at 37°C for 8 hours under anaerobic conditions, which were created by replacing air with a gas mixture of 95% Ar and 5% CO2. Immediately after incubation, the solution was replaced with a glucose-containing normal medium (M199+10% FBS), and then left in a CO2 incubator (95% air (20% O2), 5% CO2, 37°C) for 96 hours (reperfusion: re-supply of glucose/reoxygenation). Cl^- channel blocker (NPPB) was administered to the primary cell cultures of rat ventricular myocytes 1 hour prior to ischemic treatment, or at the start of ischemic treatment that lasted 8 hours. Cl- channel blocker (NPPB) was also administered over a time period of 18 hours after the start of post-ischemic reperfusion. Cell viability was assayed using MTT. To ensure accuracy in viable cell count, the assay was performed using cells obtained 96 hours after the start of post-ischemic reperfusion (Figure 1).
Primary cultures of rat ventricular myocytes were prepared and cultured in the manner described in Example 1. The procedures of Example 1 were also used to expose the primary cultures of rat ventricular myocytes to ischemic treatment (removal of glucose and oxygen) and post-ischemic reperfusion.
During ischemic treatment, the primary cultures of rat ventricular myocytes were administered with CFTR channel activator (PKA activator dbcAMP (1mM) or PKC activator PMA (100 nM), or both (DP)), or CFTR channel activator + CFTR channel blocker (NPPB (50 µM), glibenclamide (500 µM), gemfibrozil (2 mM), or 9AC (2 mM)). Following administration, ischemia was induced for 8 hours, and, after 96 hours of subsequent reperfusion, cell viability was assayed using MTT (Figure 2).
During ischemic treatment, the primary cultures of rat ventricular myocytes were administered with CFTR channel activator (milrinone (0.73 µg, 1 ml), isoproterenol (10 nM), and PMA (100 nM) used together (MIP)), or CFTR channel activator + CFTR channel blocker (NPPB (50 µM), glibenclamide (500 µM), gemfibrozil (2 mM), or 9AC (2 mM)). Following administration, ischemia was induced for 8 hours, and, after 96 hours of subsequent reperfusion, cell viability was assayed using MTT (Figure 3).

Data set [3] concerns rat ventricular myocytes. In words: Nuclear DNA fragmentation (apoptosis) by Cell Death Detection ELISA, enrichment factor. It is filed as cell-based. As to conditions: NPPB 50 µM or dbcAMP 1mM + PMA 100 nM. The method, then: Primary cultures of rat ventricular myocytes were prepared and cultured in the manner described in Example 1. The procedures of Example 1 were also used to expose the primary cultures of rat ventricular myocytes to ischemic treatment (removal of glucose and oxygen) and post-ischemic reperfusion. The primary cultures of rat ventricular myocytes were administered with CFTR channel activator (PKA activator dbcAMP (1mM) + PKC activator PMA (100 nM)), or CFTR channel blocker (NPPB (50 µM)). Administration was made at the start of ischemic treatment, which lasted 8 hours. Fragmentation of nuclear DNA in the cells was assayed immediately after ischemia or 96 hours after post-ischemic reperfusion (Figure 5). Specifically, DNA fragmentation was assayed using a method (DNA fragmentation detecting method (Cell Death Detection ELIZA kit^PLUS (Roche Diagnostics), which specifically detects […] that are characteristics of apoptotic cells. The result of measurement was obtained as enrichment factor, which was calculated according to the following formula. Enrichment factor (rate of nuclear DNA fragmentation) = absorbance of sample (dead cells)/absorbance of control (untreated cells) [formula]

Data set [4] relates to ischemic cardiac muscle. As to conditions: cited from earlier work; for effect on ischemic cardiac muscle: administered after a period of ischemia; for size of infarct in ischemic cardiac muscle: pre-ischemic administration.
For data set [5] the following is noted: extended period (45 minutes); cited from earlier work.
The conditions of data set [6]: cited from earlier work.
Where [7] appears, read: dbcAMP 1mM and/or PMA 100 nM during ischemic treatment, 8 hours ischemia, 96 hours reperfusion, MTT (Figure 2).

Each structure is given as a SMILES string.

As to `O=C(O)c1cc([N+](=O)[O-])ccc1NCCCc1ccccc1` [NPPB, 5-nitro-2-2(3-phenylpropylamino)-benzoate], the cytotoxicity at 50 µM in data set [1] was found to be 90.3%. Further, the cell viability result in data set [2] (50 µM NPPB administered during ischemic treatment (8 hours), MTT 96 hours after start of reperfusion) is “significant reduction”. Besides, the “effect of dbcAMP + PMA on cell viability under co-application of CFTR channel blocker” value (“effect of dbcAMP + PMA on cell viability” for short) in data set [2] is reported as “completely abolished”. Moreover, the “level of DNA fragmentation” value was “no significant difference” in data set [3] (96 hours after reperfusion, compared with non-administered group) and “the same” in data set [3] (immediately after 8 hours ischemia, compared with non-ischemic cells (score of 1)).

Regarding `CCCCCCCCCCCCCC(=O)O[C@@H]1[C@@H](C)[C@@]2(O)[C@@H](C=C(CO)C[C@]3(O)C(=O)C(C)=C[C@@H]23)[C@@H]2C(C)(C)[C@]12OC(C)=O` [PMA, phorbol 12-myristate 13-acetate], the cell viability result in data set [2] (setting [7]) is on record as “could not produce the effect”.

Consider `Nc1cc(-c2ccncc2)c[nH]c1=O` [amrinone], for which, in data set [4], the “effect on ischemic cardiac muscle” value was “do not exhibit any effect” and the “size of infarct in ischemic cardiac muscle” value is listed as “effective in reducing the size of infarct”.

With `CC(C)c1ccc(C(=O)NC(=N)N)cc1S(C)(=O)=O` [cariporide], in data set [5], the “effect on injury caused by post-ischemic reperfusion” value is “ineffective”.

As for `CCCC(=O)Nc1ncnc2c1ncn2[C@@H]1O[C@@H]2COP(=O)(O)O[C@H]2[C@H]1OC(=O)CCC` [dbcAMP, N6,2'-O-dibutyriladenosine-3':5'-cyclic monophosphate], the cell viability result in data set [2] (setting [7]) is “could not produce the effect”.

For the molecule `Cc1ccc(C)c(OCCCC(C)(C)C(=O)O)c1` [gemfibrozil], in data set [2], the “effect of dbcAMP + PMA on cell viability” value is recorded as “completely abolished”.

As for `COc1ccc(Cl)cc1C(=O)NCCc1ccc(S(=O)(=O)NC(=O)NC2CCCCC2)cc1` [glibenclamide], the “effect of dbcAMP + PMA on cell viability” value in data set [2] was “completely abolished”.

As usually defined, the half-life is the time needed for the level to fall by half in the phase considered. For the molecule `Cc1[nH]c(=O)c(C#N)cc1-c1ccncc1` [milrinone, 1,6-dihydro-2-methyl-6-oxo[3,4'-bipyridine]-5-carbonitrile], in data set [6] (blood), the “milrinone in the blood circulating bound to protein” value is “about 70%”. In data set [6] (in vivo), the excretion / metabolism entry is on record as “released into urine without being metabolized” and the half-life is 2 h. In data set [4], the “effect on ischemic cardiac muscle” value was “do not exhibit any effect” and the “size of infarct in ischemic cardiac muscle” value is on record as “effective in reducing the size of infarct”.

The values above are taken from patent EP1839675A1, “NOVEL METHOD OF PROTECTING ISCHEMIC CARDIOPATHY” (Japan Science and Technology Agency, priority 2004, dated 2006).
